This passage reports IC50 results from ChEMBL document CHEMBL4433242, “Rapalogs Potential as Practical Alternatives to Rapamycin” (ACS Med Chem Lett, 2019).

One may read the IC50 as the concentration that inhibits the measured activity by half.

SMILES strings stand for the structures.

In the test the target is Serine/threonine-protein kinase mTOR (Mus musculus, UniProt Q9JLN9). The experiment in a line: Inhibition of mTOR in mouse TSC1-/- MEF cells assessed as inhibition of S6 Ser240/244 phosphorylation incubated for 2 hrs by fluorescence based assay. Type of test: cell-based.
With `CO[C@@H]1C[C@H](C[C@@H](C)[C@@H]2CC[C@H](C)/C=C(\C)[C@@H](O)[C@@H](OC)C(=O)[C@H](C)C[C@H](C)/C=C/C=C/C=C(\C)C(N3CCS3(=O)=O)C[C@@H]3CC[C@@H](C)[C@@](O)(O3)C(=O)C(=O)N3CCCC[C@H]3C(=O)O2)CC[C@@H]1n1cnnn1` (stereo not given in full), the IC50 was 0.374 nM. Then `CO[C@@H]1C[C@H](C[C@@H](C)[C@@H]2CC[C@H](C)/C=C(\C)[C@@H](O)[C@@H](OC)C(=O)[C@H](C)C[C@H](C)/C=C/C=C/C=C(\C)C(N3CCS3(=O)=O)C[C@@H]3CC[C@@H](C)[C@@](O)(O3)C(=O)C(=O)N3CCCC[C@H]3C(=O)O2)CC[C@H]1O` (stereo not given in full), with 0.17 nM.

On to `CO[C@@H]1C[C@H](C[C@@H](C)[C@@H]2CC[C@H](C)/C=C(\C)[C@@H](O)[C@@H](OC)C(=O)[C@H](C)C[C@H](C)/C=C/C=C/C=C(\C)C(N3CCN(CCO)C3=O)C[C@@H]3CC[C@@H](C)[C@@](O)(O3)C(=O)C(=O)N3CCCC[C@H]3C(=O)O2)CC[C@H]1O` (stereo not given in full), for which the 50% inhibitory concentration (IC50) turned out to be 153 nM.

`CO[C@@H]1C[C@H](C[C@@H](C)[C@@H]2CC[C@H](C)/C=C(\C)[C@@H](O)[C@@H](OC)C(=O)[C@H](C)C[C@H](C)/C=C/C=C/C=C(\C)C(N3CCCS3(=O)=O)C[C@@H]3CC[C@@H](C)[C@@](O)(O3)C(=O)C(=O)N3CCCC[C@H]3C(=O)O2)CC[C@H]1OP(C)(C)=O` (stereo not given in full): the half-inhibitory concentration (IC50) worked out at 3.2 nM.

`CO[C@@H]1C[C@H](C[C@@H](C)[C@@H]2CC[C@H](C)/C=C(\C)[C@@H](O)[C@@H](OC)C(=O)[C@H](C)C[C@H](C)/C=C/C=C/C=C(\C)[C@H](N3CCCS3(=O)=O)C[C@@H]3CC[C@@H](C)[C@@](O)(O3)C(=O)C(=O)N3CCCC[C@H]3C(=O)O2)CC[C@H]1O`: the half-inhibitory concentration (IC50) is 0.274 nM.
